Several values for one entry are separate records, joined by “and”; a condition that tells them apart may be missing. Equal values may be shown once.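 Five concentrations, 48 hours, 96-well plates. Abbreviation: GI50, concentration required for 50% inhibition of growth. At the TGI there is no net growth.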 A value given as a limit tells only on which side of the number the result lay.

Among the test systems are IGROV1 ovarian; SK-MEL-5 melanoma; HS 578T breast; MALME-3M melanoma; A498 renal; NCI-H23 lung; RPMI-8226 leukemia; DU-145 prostate; EKVX NSCLC; HCT-15 colon.
Assay in all cases: NCI-60 cell line screen, 48 h

In the case of `O=C1/C(=C/c2cccc([N+](=O)[O-])c2)COc2ccc(O)cc21`, the GI50 was 1.73 µM with IGROV1 ovarian; 1.8 µM in the assay with SK-MEL-5 melanoma; 3 µM in the assay on HS 578T breast; 2.37 µM in the assay on MALME-3M melanoma; 3.35 µM with A498 renal; 2.02 µM in the assay on NCI-H23 lung. Besides, the GI50 was 0.236 µM with RPMI-8226 leukemia, 2 µM in the assay on DU-145 prostate, 3.86 µM with EKVX NSCLC and 1.7 µM with HCT-15 colon. Also, the TGI in the assay on IGROV1 ovarian worked out at 3.34 µM; with SK-MEL-5 melanoma it was 3.37 µM; in the assay on HS 578T breast, 9.4 µM; in the assay on MALME-3M melanoma, 6.75 µM; in the assay with A498 renal, 13.4 µM; with NCI-H23 lung it was 4.64 µM. The TGI is 0.604 µM with RPMI-8226 leukemia, 4.26 µM in the assay on DU-145 prostate, 13.7 µM with EKVX NSCLC and 3.49 µM with HCT-15 colon.
On to `Cc1coc2c1CC1(C)C(CCC(O)C1C)C2` (stereo unspecified), for which the TGI in the assay on IGROV1 ovarian, in the assay with SK-MEL-5 melanoma, in the assay with HS 578T breast, in the assay on MALME-3M melanoma, in the assay on A498 renal and with NCI-H23 lung was over 100 µM throughout. In addition, the TGI in the assay on RPMI-8226 leukemia, with DU-145 prostate, in the assay on EKVX NSCLC and with HCT-15 colon was over 100 µM throughout.
Take `O=S(=O)(NC1=NCCN1C(=S)SN1CCn2c1nsc2=S)c1ccc(OC(F)(F)F)cc1`: the GI50 was 11.4 µM in the assay on IGROV1 ovarian; 8.49 µM with SK-MEL-5 melanoma; 4.83 µM with HS 578T breast; 5.25 µM with MALME-3M melanoma; 15.9 µM with A498 renal; 12.7 µM in the assay on NCI-H23 lung. The GI50 in the assay on RPMI-8226 leukemia is 6.1 µM; with DU-145 prostate, 2.69 µM; in the assay on EKVX NSCLC it was 5.11 µM; with HCT-15 colon, 8.64 µM. The TGI in the assay with IGROV1 ovarian was 29.1 µM; with SK-MEL-5 melanoma it was 21.8 µM; with HS 578T breast it was 33.1 µM; in the assay on MALME-3M melanoma it was 32.7 µM; with A498 renal it was 29.7 µM; with NCI-H23 lung it was 39 µM. Besides, the TGI with RPMI-8226 leukemia is over 100 µM; in the assay with DU-145 prostate, 12.1 µM; in the assay on EKVX NSCLC, 19.6 µM; in the assay with HCT-15 colon it was 26.2 µM.
With `COc1ccc(C(=O)Cn2c(C(=O)c3ccccc3)nc(-c3ccc(OC)cc3)c2-c2ccc(OC)cc2)cc1`, the GI50 in the assay with IGROV1 ovarian is 71.2 µM; in the assay on SK-MEL-5 melanoma it was over 100 µM; with HS 578T breast, 45.6 µM; in the assay with MALME-3M melanoma, over 100 µM; in the assay on A498 renal it was over 100 µM; in the assay on NCI-H23 lung, over 100 µM. Besides, the GI50 with RPMI-8226 leukemia, in the assay on DU-145 prostate, with EKVX NSCLC and with HCT-15 colon was over 100 µM each time. For the same compound, the TGI in the assay on IGROV1 ovarian, in the assay on SK-MEL-5 melanoma, with HS 578T breast, in the assay with MALME-3M melanoma, in the assay with A498 renal and in the assay with NCI-H23 lung was over 100 µM in each case. For the same compound, the TGI in the assay on RPMI-8226 leukemia, in the assay with DU-145 prostate, in the assay on EKVX NSCLC and in the assay on HCT-15 colon was over 100 µM throughout.
Turning to `c1ccc2cc(-c3cc(-c4cc(-c5ccc6ccccc6c5)on4)no3)ccc2c1`, the TGI in the assay on IGROV1 ovarian, in the assay on SK-MEL-5 melanoma, in the assay on HS 578T breast, in the assay with MALME-3M melanoma, in the assay on A498 renal and in the assay with NCI-H23 lung was over 100 µM in each case. Moreover, the TGI with RPMI-8226 leukemia, in the assay on DU-145 prostate, in the assay on EKVX NSCLC and in the assay on HCT-15 colon was over 100 µM in each case.
Consider `CC[C@@]1(O)C[C@H](OC2CC(N(C)C)C(O)C(C)O2)c2c(O)c3c(c(O)c2[C@H]1OC1CC(N(C)C)C(O)C(C)O1)C(=O)c1cccc(O)c1C3=O` (stereo partly specified), for which the GI50 with IGROV1 ovarian, in the assay with SK-MEL-5 melanoma, in the assay with HS 578T breast, in the assay on MALME-3M melanoma, in the assay with A498 renal and in the assay on NCI-H23 lung was under 0.01 µM each time. The GI50 in the assay on RPMI-8226 leukemia was under 0.01 µM; in the assay with DU-145 prostate it was under 0.01 µM; in the assay with EKVX NSCLC it was under 0.01 µM; with HCT-15 colon, 0.0238 µM. In addition, the TGI is 2.94 µM with IGROV1 ovarian; 0.388 µM and 0.0724 µM in the assay with HS 578T breast; 0.581 µM and 0.0919 µM with RPMI-8226 leukemia; 11.3 µM with DU-145 prostate; 0.538 µM and 0.167 µM in the assay with EKVX NSCLC; 0.971 µM and 1.29 µM in the assay with HCT-15 colon.
Turning to `COc1ccc(-c2nc3sccn3c2/C(N)=N/C(=N)N)cc1OC`, the GI50 in the assay with IGROV1 ovarian is 3.26 µM; in the assay with SK-MEL-5 melanoma it was 21.3 µM; in the assay with HS 578T breast it was 35.5 µM; in the assay on MALME-3M melanoma it was 13.3 µM; with A498 renal it was over 100 µM; in the assay on NCI-H23 lung it was over 100 µM. Also, the GI50 with RPMI-8226 leukemia is 58.5 µM; in the assay on DU-145 prostate it was 52.4 µM; with EKVX NSCLC, 66.4 µM; with HCT-15 colon, over 100 µM. The TGI was 7.11 µM with IGROV1 ovarian; 44.5 µM in the assay on SK-MEL-5 melanoma; over 100 µM in the assay with HS 578T breast; 32.9 µM in the assay on MALME-3M melanoma; over 100 µM with A498 renal; over 100 µM with NCI-H23 lung. The TGI in the assay with RPMI-8226 leukemia, in the assay on DU-145 prostate, with EKVX NSCLC and in the assay with HCT-15 colon was over 100 µM each time.
As to `COC1CCC(N2C(=O)CNc3ncc(-c4ccc(C(C)(C)O)nc4)nc32)CC1` (stereo unspecified), the GI50 in the assay with IGROV1 ovarian is 0.315 µM and 0.0564 µM; in the assay with SK-MEL-5 melanoma, 0.766 µM and 0.149 µM; with HS 578T breast it was 0.407 µM and 0.137 µM; in the assay on MALME-3M melanoma it was 0.228 µM and 0.0287 µM; with A498 renal, 0.0614 µM and 0.0422 µM; in the assay on NCI-H23 lung, 1.16 µM and 0.35 µM. The GI50 in the assay on RPMI-8226 leukemia is 0.376 µM and 0.0559 µM; in the assay with DU-145 prostate, 1.42 µM and 0.459 µM; with EKVX NSCLC, 1.21 µM and 0.186 µM; with HCT-15 colon, 0.732 µM and 0.293 µM. In addition, the TGI with IGROV1 ovarian is 2.8 µM and 1.64 µM; in the assay on SK-MEL-5 melanoma, 2.79 µM and 1.46 µM; in the assay with HS 578T breast, 3.68 µM and 0.624 µM; in the assay on MALME-3M melanoma, 2.8 µM and 0.352 µM; in the assay on A498 renal, 0.769 µM and 0.378 µM; in the assay with NCI-H23 lung it was over 45.1 µM. Besides, the TGI in the assay with RPMI-8226 leukemia was 2.95 µM and 3.97 µM; in the assay on DU-145 prostate, over 38 µM; in the assay on EKVX NSCLC it was > 8.47 µM and 6.7 µM; in the assay on HCT-15 colon, over 36.1 µM.

The values above are taken from PubChem BioAssay (NCI).
